In patent US20140081017A1, “Histone Deacetylase Inhibitors for Enhancing Activity of Antifungal Agents” (METHYLGENE INC., priority 2012, published 2014):
Values after ≈ are worked out from the molar mass of the structure shown. Where two headings read alike, the source gives them in different places.

Columns and labels:
[1] = tested on: Candida glabrata; test: Minimal Inhibitory Concentration (MIC) assay, broth microdilution per CLSI; assay type: cell-based; conditions: Nakaseomyces glabratus, read-out: Minimum Inhibitory Concentrations against Yeast Isolates, Candida glabrata;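 further: two read times 24 hr and 48 hr of incubation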
Summary of the method: (§1)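 Steps: overnight yeast growth on Sabouraud dextrose agar at 35° C; 0.5 McFarland saline suspension diluted 1:100 in RPMI (0.165 M MOPS, pH 7.0); inoculation into twofold compound dilutions; incubation 24-48 hr at 35° C; MIC scored as lowest concentration without visible growth.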

[2] = tested on: Candida parapsilosis; test: as above; assay type: cell-based; conditions: Lodderomyces parapsilosis, read-out: Minimum Inhibitory Concentrations against Yeast Isolates, Candida parapsilosis;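 further: two read times 24 hr and 48 hr of incubation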
Summary of the method: as §1

[3] = tested on: Candida albicans; test: as above; assay type: cell-based; conditions: Candida albicans, read-out: Minimum Inhibitory Concentrations against Yeast Isolates, Candida albicans;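 further: two read times 24 hr and 48 hr of incubation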
Summary of the method: as §1

[4] = tested on: C. glabrata; test: Checkerboard FIC assay in combination with fluconazole (MIC alone and in combination, FICI); assay type: cell-based, Candida glabrata; conditions: for FICI of combination resulting in fluconazole MIC of: 2 ug/mL / FICI of combination resulting in fluconazole MIC of: 4 ug/mL / FICI of combination resulting in fluconazole MIC of: 8 ug/mL: FICI calculated using a fluconazole MIC of 16 μg/mL; for FICI of combination resulting in fluconazole MIC of: 2 ug/mL (value in parenthesis) / FICI of combination resulting in fluconazole MIC of: 4 ug/mL (value in parenthesis) / FICI of combination resulting in fluconazole MIC of: 8 ug/mL (value in parenthesis): FICI using a fluconazole MIC of 128 μg/mL; for MIC: Nakaseomyces glabratus; for Multiple of compound MIC to synergize fluconazole MIC to 2 ug/mL / Multiple of compound MIC to synergize fluconazole MIC to 4 ug/mL / Multiple of compound MIC to synergize fluconazole MIC to 8 ug/mL: concentration in combination as multiple of the compound's MIC alone; for Multiple of compound MIC to synergize fluconazole MIC to 2 ug/mL: fluconazole MIC 2 ug/mL; for Multiple of compound MIC to synergize fluconazole MIC to 4 ug/mL: fluconazole MIC 4 ug/mL; for Multiple of compound MIC to synergize fluconazole MIC to 8 ug/mL: fluconazole MIC 8 ug/mL; for Concentration of Methylgene compound to synergize fluconazole MIC to 2 ug/mL / Concentration of Methylgene compound to synergize fluconazole MIC to 4 ug/mL / Concentration of Methylgene compound to synergize fluconazole MIC to 8 ug/mL: in combination with fluconazole; for Concentration of Methylgene compound to synergize fluconazole MIC to 2 ug/mL: fluconazole MIC lowered to 2 ug/mL; for Concentration of Methylgene compound to synergize fluconazole MIC to 4 ug/mL: fluconazole MIC lowered to 4 ug/mL; for Concentration of Methylgene compound to synergize fluconazole MIC to 8 ug/mL: fluconazole MIC lowered to 8 ug/mL
Summary of the method: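 A fluconazole synergy checkerboard was run against C. glabrata in MOPS-buffered RPMI (pH 7.0) for about 48 h at 35 °C. Each agent was diluted 2-fold, with one row and one column holding each agent alone for MIC determination. FICI was calculated from these MICs, using a 0.5 McFarland inoculum diluted 1:100 per CLSI.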

[5] = 24 hr reading (first value of cell 24 hr/48 hr)
[6] = 48 hr reading (second value of cell 24 hr/48 hr)
[7] = MIC of the example compound alone against C. glabrata in the checkerboard assay, approximately 48 hr, read-out: Methylgene MIC
[8] = test compound alone, C. glabrata, approx. 48 hr at 35° C., read-out: Compound MIC

Structure (SMILES) | MIC [1, 5] [µg/mL] | MIC [1, 6] [µg/mL] | MIC [2, 5] [µg/mL] | MIC [2, 6] [µg/mL] | MIC [3, 5] [µg/mL] | MIC [3, 6] [µg/mL] | FICI of combination resulting in fluconazole MIC of: 2 ug/mL ([4]; C. glabrata) | FICI of combination resulting in fluconazole MIC of: 4 ug/mL ([4]; C. glabrata) | FICI of combination resulting in fluconazole MIC of: 8 ug/mL ([4]; C. glabrata) | FICI of combination resulting in fluconazole MIC of: 2 ug/mL (value in parenthesis) ([4]; C. glabrata) | FICI of combination resulting in fluconazole MIC of: 4 ug/mL (value in parenthesis) ([4]; C. glabrata) | FICI of combination resulting in fluconazole MIC of: 8 ug/mL (value in parenthesis) ([4]; C. glabrata) | MIC [4, 7] [µg/mL] | MIC [4, 8] [µg/mL] | Multiple of compound MIC to synergize fluconazole MIC to 2 ug/mL [4] | Multiple of compound MIC to synergize fluconazole MIC to 4 ug/mL [4] | Multiple of compound MIC to synergize fluconazole MIC to 8 ug/mL [4] | Concentration of Methylgene compound to synergize fluconazole MIC to 2 ug/mL ([4]; C. glabrata) [µg/mL] | Concentration of Methylgene compound to synergize fluconazole MIC to 4 ug/mL ([4]; C. glabrata) [µg/mL] | Concentration of Methylgene compound to synergize fluconazole MIC to 8 ug/mL ([4]; C. glabrata) [µg/mL]
O=C(Cc1ccc(CCCCc2ccc(NC(=O)CO)cc2)cc1)NO [Example 36, N-hydroxy-2-(4-(4-(4-(2-hydroxyacetamido)phenyl)butyl)phenyl)acetamide] | > 8 | > 8 | > 8 | > 8 | > 8 | > 8 | 0.375 | 0.500 | 0.625 | 0.266 | 0.281 | 0.188 | 16 | 16 | (¼x) | (¼x) | (⅛x) | 4 | 4 | 2
COCCOCCOCCOCCC(=O)Nc1ccc(CCCCc2ccc(CC(=O)NO)cc2)cc1 [Example 37, N-(4-(4-(4-(2-(hydroxyamino)-2-oxoethyl)phenyl)butyl)phenyl)-2,5,8,11-tetraoxatetradecan-14-amide] | 64 (≈ 124 µM) | > 64 | > 64 | > 64 | > 64 | > 64 | 0.375 | 0.500 | 0.625 | 0.266 | 0.281 | 0.188 | 4 | 4 | (¼x) | (¼x) | (⅛x) | 1 | 1 | 0.5
CN(C)CCSCC(=O)Nc1ccc(CCCCc2ccc(CC(=O)NO)cc2)cc1 [Example 38, 2-(2-(dimethylamino)ethylthio)-N-(4-(4-(4-(2-(hydroxyamino)-2-oxoethyl)phenyl)butyl)phenyl)acetamide] | 16 (≈ 36.1 µM) | 16 (≈ 36.1 µM) | > 64 | > 64 | > 64 | > 64 | 0.563 | 0.375 | 0.375 | 0.516 | 0.281 | 0.188 | 16 | 16 | (½x) | (¼x) | (⅛x) | 8 | 4 | 2
